Source: US20210309657A1, “TRICYCLIC COMPOUNDS FOR THE TREATMENT AND PROPHYLAXIS OF BACTERIAL INFECTION” (Hoffmann-La Roche Inc., priority 2018, published 2021)
Values after ≈ are worked out from the molar mass of the structure shown. Like-named read-outs stand apart in the source and are kept apart here.

Experiments:
S. aureus (ATCC29213) = test: 50% growth inhibitory concentration (IC50) determination assay, S. aureus; type: cell-based; conditions: Staphylococcus aureus, growth inhibition, Iso-Sensitest broth, OD 600 nm over 16h, <0.098 = the detection limit
Method: (§1) The in vitro antimicrobial activity of the compounds against S. aureus (ATCC29213), K. pneumoniae (ATCC10031), and A. baumannii (ATCC17978), was determined according to the following procedure: The assay used a 10-points Iso-Sensitest broth medium to measure quantitatively the in vitro activity of the compounds against S. aureus ATCC29213, K. pneumoniae ATCC 10031, and A. baumannii ATCC17978. Stock compounds in DMSO were serially two-fold diluted (range from 50 to 0.097 μM final concentration) in 384 wells microtiter plates and inoculated with 49 μL the bacterial suspension in Iso-Sensitest broth medium to have a final cell concentration of ˜5×10^5 CFU/mL in a final volume/well of 50 μL/well. Microtiter plates were incubated at 35±2° C. Bacterial cell growth was determined with the measurement of optical density at λ=600 nm each 20 minutes over a time course of 16h. Growth inhibition was calculated during the logarithmic growth of the bacterial cells with determination of the concentration inhibiting 50% (IC50) of the growth. Compounds of the present invention were tested for their concentration inhibiting 50% (IC50). The data of IC50 over S. aureus (ATCC29213), K. pneumoniae (ATCC10031), and A. baumannii (ATCC17978) are illustrated in Table 4.

[1] = test system: K. pneumoniae (ATCC10031); test: 50% growth inhibitory concentration (IC50) determination assay, K. pneumoniae; type: cell-based; conditions: Klebsiella pneumoniae, growth inhibition, Iso-Sensitest broth, OD 600 nm over 16h, <0.098 = the detection limit
Method: as §1

A. baumannii (ATCC17978) = test: 50% growth inhibitory concentration (IC50) determination assay, A. baumannii; type: cell-based; conditions: Acinetobacter baumannii, growth inhibition, Iso-Sensitest broth, OD 600 nm over 16h, <0.098 = the detection limit
Method: as §1

[2] = Lyophilisation solubility assay (LYSA); type: physicochemical; conditions: thermodynamic from solid
Method: The solubility of compounds of present invention was assessed by LYSA assay. Samples were prepared in duplicate from 10 mM DMSO stock solutions ([…]) diluted in 30 μL pure DMSO. After evaporation of DMSO with a centrifugal vacuum evaporator, the residue was dissolved in 0.05 M phosphate buffer (150 μL, pH 6.5), which was stirred for one hour and shook for two hours. After one night, the solution was filtered using a microtiter filter plate. Then the filtrate and its 1/10 dilution were analyzed by HPLC-UV. In addition, a four-point calibration curve was prepared from the 10 mM stock solutions and used for the solubility determination of the compounds.

[3] = aqueous buffer, 0.05 M phosphate buffer, pH 6.5, HPLC-UV, <1.0 = the detection limit, read-out: Lysa

| IC50 (S. aureus (ATCC29213)) [nM] | IC50 [1] [nM] | IC50 (A. baumannii (ATCC17978)) [nM] | solubility thermodynamic [2, 3] [µg/mL] | SMILES | solubility thermodynamic ([2]; pH 6.5, aqueous buffer) [µg/mL] |
| --- | --- | --- | --- | --- | --- |
| 474 | 391 | < 98 | 160 (≈ 365 µM) | CNc1cc(F)c(F)c2c1[nH]c1ncc(-c3cnc(C4(C(=O)O)CC4)nc3)c(N(C)C)c12 [Example 2.02, 1-[5-[4-(dimethylamino)-5,6-difluoro-8-(methylamino)-9H-pyrido[2,3-b]indol-3-yl]pyrimidin-2-yl]cyclopropanecarboxylic acid] | – |
| 1110 | 189 | < 98 | 410 (≈ 935 µM) | CNc1c(F)c(F)cc2c1[nH]c1ncc(-c3cnc(C4(C(=O)O)CC4)nc3)c(N(C)C)c12 [Example 2.03, 1-(5-(4-(dimethylamino)-6,7-difluoro-8-(methylamino)-9H-pyrido[2,3-b]indol-3-yl)pyrimidin-2-yl)cyclopropanecarboxylic acid] | – |
| 559 | < 98 | 411 | 125 (≈ 263 µM) | CNc1cc(F)c(F)c2c1[nH]c1ncc(-c3cnc(OC)nc3)c(N3CC(CN)C(F)(F)C3)c12 (stereo not drawn) [Example 3.03, 4-[4-(aminomethyl)-3,3-difluoro-pyrrolidin-1-yl]-5,6-difluoro-3-(2-methoxypyrimidin-5-yl)-N-methyl-9H-pyrido[2,3-b]indol-8-amine] | – |
| 649 | < 98 | 485 | 16 (≈ 34.1 µM) | CNc1cc(F)c(F)c2c1[nH]c1ncc(-c3cncc(C#N)c3)c(N3CC(CN)C(F)(F)C3)c12 (stereo not drawn) [Example 3.04, 5-[4-[4-(aminomethyl)-3,3-difluoro-pyrrolidin-1-yl]-5,6-difluoro-8-(methylamino)-9H-pyrido[2,3-b]indol-3-yl]pyridine-3-carbonitrile] | – |
| 631 | < 98 | 847 | > 575 | CNc1cc(F)cc2c1[nH]c1ncc(-c3cnc(OC)nc3)c(C3(CN)CC3)c12 [Example 4.01, 4-(1-(Aminomethyl)cyclopropyl)-6-fluoro-3-(2-methoxypyrimidin-5-yl)-N-methyl-9H-pyrido[2,3-b]indol-8-amine] | – |
| < 98 | < 98 | < 98 | < 1 | CNc1cc(F)c(F)c2c1[nH]c1ncc(-c3cnc(C)nc3)c(N3C[C@H]4C[C@@H]3C[C@H]4N)c12 [GP-6, reference compound] | – |

The next lines start with the compound.

| SMILES | IC50 (S. aureus (ATCC29213)) [nM] | IC50 [1] [nM] | IC50 (A. baumannii (ATCC17978)) [nM] | solubility thermodynamic [2, 3] [µg/mL] | solubility thermodynamic ([2]; pH 6.5, aqueous buffer) [µg/mL] |
| --- | --- | --- | --- | --- | --- |
| CNc1cc(F)c(F)c2c1[nH]c1ncc(-c3cnc(OC)nc3)c(N3CCC(F)(CN)C3)c12 (stereo not drawn) [Example 1.28, 4-[3-(aminomethyl)-3-fluoro-pyrrolidin-1-yl]-5,6-difluoro-3-(2-methoxypyrimidin-5-yl)-N-methyl-9H-pyrido[2,3-b]indol-8-amine] | 227 | < 98 | 115 | 88 (≈ 192 µM) | – |
| CNc1cc(F)c(F)c2c1[nH]c1ncc(-c3cncc(C#N)c3)c(N3CC4CC4(CN)C3)c12 (stereo not drawn) [Example 1.32, 5-[4-[1-(Aminomethyl)-3-azabicyclo[3.1.0]hexan-3-yl]-5,6-difluoro-8-(methylamino)-9H-pyrido[2,3-b]indol-3-yl]pyridine-3-carbonitrile] | 1240 | < 98 | 472 | 10 (≈ 22.4 µM) | – |
| CNc1cc(F)c(F)c2c1[nH]c1ncc(-c3cncc(C#N)c3)c(N3CCCC(N)C3)c12 (stereo not drawn) [Example 1.46, 5-(4-(3-Aminopiperidin-1-yl)-5,6-difluoro-8-(methylamino)-9H-pyrido[2,3-b]indol-3-yl)nicotinonitrile] | 206 | < 98 | 387 | 17 (≈ 39.2 µM) | – |
| CNc1cc(F)c(F)c2c1[nH]c1ncc(-c3cnc(OC)nc3)c(N3CCCC(N)C3)c12 (stereo not drawn) [Example 1.47, 4-(3-Aminopiperidin-1-yl)-5,6-difluoro-3-(2-methoxypyrimidin-5-yl)-N-methyl-9H-pyrido[2,3-b]indol-8-amine] | 275 | < 98 | 443 | 19 (≈ 43.2 µM) | – |
| CCNc1cc(F)c(F)c2c1[nH]c1ncc(-c3cnc(OC)nc3)c(N3CCC[C@@H](CN)C3)c12 [Example 1.53, (S)-4-(3-(Aminomethyl)piperidin-1-yl)-N-ethyl-5,6-difluoro-3-(2-methoxypyrimidin-5-yl)-9H-pyrido[2,3-b]indol-8-amine] | 394 | < 98 | < 98 | 241 (≈ 515 µM) | – |
| CNc1cc(F)c(F)c2c1[nH]c1ncc(-c3cncc(C#N)c3)c(N3CCCC(F)(CN)C3)c12 (stereo not drawn) [Example 1.54, 5-[4-[3-(Aminomethyl)-3-fluoro-1-piperidyl]-5,6-difluoro-8-(methylamino)-9H-pyrido[2,3-b]indol-3-yl]pyridine-3-carbonitrile] | 477 | < 98 | < 98 | 39 (≈ 83.8 µM) | – |
| CNc1cc(F)c(F)c2c1[nH]c1ncc(-c3cnc(OC)nc3)c(N3C4CNCC3C4)c12 [Example 1.57, 4-(3,6-Diazabicyclo[3.1.1]heptan-6-yl)-5,6-difluoro-3-(2-methoxypyrimidin-5-yl)-N-methyl-9H-pyrido[2,3-b]indol-8-amine] | 286 | < 98 | 314 | – | 91 (≈ 208 µM) |
| CCOc1ncc(-c2cnc3[nH]c4c(NC)cc(F)cc4c3c2N2C3CNCC2C3)cn1 [Example 1.59, 4-(3,6-Diazabicyclo[3.1.1]heptan-6-yl)-3-(2-ethoxypyrimidin-5-yl)-6-fluoro-N-methyl-9H-pyrido[2,3-b]indol-8-amine] | 631 | < 98 | 499 | – | 395 (≈ 911 µM) |
| CNc1cc(F)cc2c1[nH]c1ncc(-c3cnc(OC)nc3)c(N3C4CNCC3C4)c12 [Example 1.61, 4-(3,6-Diazabicyclo[3.1.1]heptan-6-yl)-6-fluoro-3-(2-methoxypyrimidin-5-yl)-N-methyl-9H-pyrido[2,3-b]indol-8-amine] | 650 | < 98 | 792 | – | 62 (≈ 148 µM) |
